In ChEMBL document CHEMBL2331215, “Discovery of novel N-substituted oxindoles as selective m1 and m4 muscarinic acetylcholine receptors partial agonists” (ACS Med Chem Lett, 2013):
The source made the active and inactive calls. The rule behind the calls is not given here.

What was measured:
[1] = tested on: Cynomolgus monkey; assay: Induction of salivation in sc dosed cynomolgus monkey; type: organism-based, Macaca fascicularis; conditions: in vivo
[2] = tested on: Cynomolgus monkey; assay: Cardiotoxicity in telemetered cynomolgus monkey assessed as increase in heart rate at 1.5 to 6 mg/kg, sc measured after 1 to 4 hrs by telemetry method; type: toxicity, organism-based, Macaca fascicularis; design: route subcutaneous; conditions: in vivo
[3] = tested on: Cynomolgus monkey; assay: Cardiotoxicity in telemetered cynomolgus monkey assessed as prolongation of QRS duration at 1.5 to 6 mg/kg, sc measured after 1 to 4 hrs by telemetry method; type: toxicity, organism-based, Macaca fascicularis; design: route subcutaneous; conditions: in vivo
[4] = tested on: Cynomolgus monkey; assay: Cardiotoxicity in telemetered cynomolgus monkey assessed as increase in mean blood pressure at 1.5 to 6 mg/kg, sc measured after 1 to 4 hrs by telemetry method; type: toxicity, organism-based, Macaca fascicularis; design: route subcutaneous; conditions: in vivo
[5] = tested on: Mus musculus; assay: Induction of seizures in ddY mouse at 100 mg/kg, sc measured for 45 mins after drug injection; type: organism-based; design: dose 100 mg/kg, route subcutaneous; conditions: in vivo, 0.75 h
[6] = tested on: Mus musculus; assay: Induction of salivation in ddY mouse at 10 to 30 mg/kg, sc measured for 30 mins after drug administration; type: organism-based; design: dose 10-30 mg/kg, route subcutaneous; conditions: in vivo, 0.5 h
[7] = tested on: Rattus norvegicus; assay: Antipsychotic activity in Sprague-Dawley rats assessed as inhibition of apomorphine-induced prepulse inhibition deficit at 1 to 10 mg/kg, sc administered 15 mins prior to apomorphine injection measured after 15 mins; type: functional, organism-based
[8] = tested on: Rattus norvegicus; assay: Potentiation of risperidone-induced catalepsy in Sprague-Dawley rats at 10 mg/kg, sc administered 15 mins after risperidone injection measured after 45 mins; type: ADME, organism-based; design: dose 10 mg/kg, route subcutaneous; conditions: in vivo, 0.75 h
[9] = molecular target: Voltage-gated inwardly rectifying potassium channel KCNH2 (Homo sapiens, UniProt Q12809); assay: Inhibition of human ERG assessed as decrease in tail current amplitude measured after 5 mins by whole cell patch clamp technique
Voltage-gated inwardly rectifying potassium channel KCNH2, sequence (Q12809 whole entry): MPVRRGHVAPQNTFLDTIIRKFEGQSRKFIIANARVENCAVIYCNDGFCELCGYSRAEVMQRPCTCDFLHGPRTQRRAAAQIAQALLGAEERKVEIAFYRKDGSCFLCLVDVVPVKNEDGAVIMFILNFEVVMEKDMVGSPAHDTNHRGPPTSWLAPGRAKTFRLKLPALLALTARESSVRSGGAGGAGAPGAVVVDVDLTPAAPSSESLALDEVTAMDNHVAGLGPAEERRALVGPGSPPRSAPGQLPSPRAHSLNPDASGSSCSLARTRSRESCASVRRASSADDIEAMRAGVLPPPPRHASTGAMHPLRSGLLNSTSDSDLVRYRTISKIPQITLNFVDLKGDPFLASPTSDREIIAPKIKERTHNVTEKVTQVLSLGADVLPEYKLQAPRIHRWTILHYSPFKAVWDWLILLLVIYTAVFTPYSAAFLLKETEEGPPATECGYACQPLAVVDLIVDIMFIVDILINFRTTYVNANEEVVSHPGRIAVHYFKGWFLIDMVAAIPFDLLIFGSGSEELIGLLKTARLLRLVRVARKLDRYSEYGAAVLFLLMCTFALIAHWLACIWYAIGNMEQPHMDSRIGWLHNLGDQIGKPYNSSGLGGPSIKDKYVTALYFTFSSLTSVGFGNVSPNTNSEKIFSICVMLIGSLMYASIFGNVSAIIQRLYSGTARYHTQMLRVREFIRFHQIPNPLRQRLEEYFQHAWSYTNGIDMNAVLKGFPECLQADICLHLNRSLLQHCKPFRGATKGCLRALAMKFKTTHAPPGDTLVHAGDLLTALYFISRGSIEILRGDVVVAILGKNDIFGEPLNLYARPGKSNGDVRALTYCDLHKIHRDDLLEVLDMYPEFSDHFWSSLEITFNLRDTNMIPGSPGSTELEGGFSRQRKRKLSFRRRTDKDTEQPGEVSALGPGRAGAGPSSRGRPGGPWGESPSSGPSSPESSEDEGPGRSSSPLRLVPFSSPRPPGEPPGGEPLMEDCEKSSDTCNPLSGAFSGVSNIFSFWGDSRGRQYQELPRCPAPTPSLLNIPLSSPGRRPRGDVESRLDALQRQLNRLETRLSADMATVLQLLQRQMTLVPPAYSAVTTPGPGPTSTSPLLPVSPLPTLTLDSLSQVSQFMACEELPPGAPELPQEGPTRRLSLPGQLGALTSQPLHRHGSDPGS

[10] = molecular target: T1, Muscarinic acetylcholine receptor M2 (Homo sapiens) (UniProt P08172); assay: Partial agonist activity at human M2 receptor co-expressed with Galpha16 in CHO cells assessed as calcium mobilization at 30 uM after 60 mins by FLIPR assay; type: functional, cell-based
T1 sequence (whole entry): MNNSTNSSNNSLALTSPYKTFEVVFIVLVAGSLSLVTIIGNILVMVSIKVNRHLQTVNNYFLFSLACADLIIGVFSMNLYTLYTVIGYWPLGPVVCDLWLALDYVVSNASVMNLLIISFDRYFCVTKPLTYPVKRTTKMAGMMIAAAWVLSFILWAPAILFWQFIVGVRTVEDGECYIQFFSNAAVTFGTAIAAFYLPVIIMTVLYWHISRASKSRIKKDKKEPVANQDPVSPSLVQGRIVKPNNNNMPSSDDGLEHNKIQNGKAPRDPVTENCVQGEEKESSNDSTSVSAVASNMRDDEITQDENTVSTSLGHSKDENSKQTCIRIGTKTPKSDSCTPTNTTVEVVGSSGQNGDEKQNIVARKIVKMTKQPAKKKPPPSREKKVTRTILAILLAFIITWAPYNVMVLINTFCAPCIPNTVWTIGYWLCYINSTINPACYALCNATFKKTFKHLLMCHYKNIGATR

[11] = molecular target: T2, Muscarinic acetylcholine receptor M1 (Homo sapiens) (UniProt P11229); assay: (§1) Partial agonist activity at human M1 receptor in CHO cells assessed as calcium mobilization after 60 mins by FLIPR assay; type: functional, cell-based
T2 sequence (whole entry): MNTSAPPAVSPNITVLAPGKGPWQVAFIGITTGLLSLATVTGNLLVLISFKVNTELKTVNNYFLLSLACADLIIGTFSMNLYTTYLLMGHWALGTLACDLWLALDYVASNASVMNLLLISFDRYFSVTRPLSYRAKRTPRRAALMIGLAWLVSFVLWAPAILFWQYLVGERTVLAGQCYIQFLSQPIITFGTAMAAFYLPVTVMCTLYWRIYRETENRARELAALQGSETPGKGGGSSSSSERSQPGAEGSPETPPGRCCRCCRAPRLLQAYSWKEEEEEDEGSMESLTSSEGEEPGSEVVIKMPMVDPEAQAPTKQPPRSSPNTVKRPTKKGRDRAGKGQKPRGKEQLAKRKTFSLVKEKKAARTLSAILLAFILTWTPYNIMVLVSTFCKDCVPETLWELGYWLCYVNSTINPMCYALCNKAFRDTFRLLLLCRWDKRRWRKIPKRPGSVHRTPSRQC

[12] = molecular target: T3, Muscarinic acetylcholine receptor M1 (Homo sapiens, UniProt P11229); assay: as §1; type: functional, cell-based
T3 sequence (P11229 whole entry): T2 sequence (whole entry)

CCOC(=O)N1[C@@H]2CC[C@H]1C[C@H](CN1CC[C@H](N3C(=O)Cc4ccccc43)C1)C2
Activity [1]: Toxic | Activity [2]: Toxic | Activity [3]: Non-toxic | Activity [4]: Non-toxic | Activity [5]: Non-toxic | Activity [6]: Non-toxic | inhibition [7]: Active | Activity [8]: Non-toxic | IC50 [9]: 2400 nM | Activity [10]: inactive | Intrinsic activity [11]: 60% | EC50 [12]: 12 nM
